This test is described as follows: Study underlying Fig. 6: cumulative food intake after ip ghrelin and desacyl ghrelin, alone or simultaneously, freely fed rats, light phase. In kind it is in vivo, SD rats. Particulars: ghrelin 13 µg/kg ip plus vehicle. Here is the method:
Male adult SD rats (Harlan-Winkelmann Co., Borchen, Germany) weighting 250 g were housed in groups of 4 rats/cage under conditions of controlled illumination (12:12 h light/dark cycle, lights on/off: 6:30 a.m./6:30 p.m.), humidity, and temperature (22 ± 2°C). Animals were fed with a standard rat diet (Altromin®, Lage, Germany) and tap water ad libitum. All animals were trained daily to be accustomed to the experimental conditions for 14 days before starting the experiments. During the handling phase, the back position was practiced to make animals familiar with receiving an ip injection.
Rat desacyl ghrelin (0.5 mg/ml; Peptides International, Louisville, USA) or rat ghrelin (1 mg/ml) was dissolved in distilled water and stored at -20°C. Immediately before starting the experiments, peptides were diluted in vehicle solution consisting of sterile 0.15 M NaCl (Braun, Melsungen, Germany) to reach the final concentration of 13 µg (∼4 nmol) ghrelin/kg, and 64 µg (∼20 nmol) or 127 µg (∼40 nmol) desacyl ghrelin/kg body weight. Peptide solutions were kept on ice for the duration of the experiments. […]
On the day of the experiment, freely fed animals were injected ip simultaneously (final volume: 0.5 ml) with vehicle plus vehicle (0.15 M NaCl + 0.15 M NaCl, n=13), ghrelin plus vehicle (13 µg/kg + 0.15 M NaCl, n=13), ghrelin (13 µg/kg) plus 64 µg/kg or 127 µg/kg desacyl ghrelin (n =13 in both groups), or vehicle plus 64 µg/kg desacyl ghrelin (n=13) and returned to single housing cages immediately after the injection. […] Food intake was determined by measuring the difference between the preweighed standard chow and the weight of chow at the end of the first 30 min, 1 h and 2 h food exposure.
The cumulative food intake monitored at the end of the first 30 min, 1 h, and 2 h after peptide or vehicle injection was expressed as food intake (g)/body weight (kg) (Ruter et al. 2003). Data were expressed as mean ± SEM and analyzed by Kruskal-Wallis One Way ANOVA. Differences between groups were evaluated by the Student-Newman-Keuls method; p < 0.05 was considered significant.

In the case of n-octanoyl-ghrelin, the cumulative food intake worked out at 7.71 ± 0.97 g/kg body weight (2h, vehicle plus vehicle 2.65 ± 0.93) and 7.29 ± 0.92 g/kg (one hour, vehicle plus vehicle 1.49 ± 0.72). Besides, the food intake (first half hour, vehicle plus vehicle 1.49 ± 0.72) was 5.76 ± 0.68 g/kg body weight.

Values taken from patent publication EP2067481A1, “Therapeutic use of desacyl ghrelin” (Charité - Universitätsmedizin Berlin, priority 2007, dated 2009).
